Laboratory results from patent publication US8354443B2, “Cyclopropane indolinone derivatives” (Hoffmann-La Roche Inc., priority 2009, dated 2013).

These compounds were tested on recombinant AMPK proteins (α1β1γ1, α2β1γ1, α1(1-335), α1(1-394) or α2(1-394)) (assay: Scintillation Proximity Assay (AMPK activation)). Settings: effective concentration of activator for 50% of maximal enzyme activity; 2 hr at 30° C.; AMPK form not specified.
Type: biochemical, human
From the text: Recombinant human AMPK α1β1γ1, α2β1γ1 or AMPK a subunit truncations α1 (1-335), α1 (1-394) and α2(1-394) were constructed, expressed and purified as described previously (Pang, T., Zhang, Z. S., Gu, M., Qiu, B. Y., Yu, L. F., Cao, P. R., Shao, W., Su, M. B., Li, J. Y., Nan, F. J., and Li, J. (2008) or purchased from Invitrogen (San Diego, Calif., U.S.A.). Rat liver AMPK heterotrimer enzyme was obtained from Upstate (Billerica, Mass., U.S.A.).
Before the Scintillation Proximity Assay (SPA) assay, 200 nM recombinant AMPK proteins (α1β1γ1, α2β1γ1, α1(1-335), α1(1-394) or α2(1-394)) were fully phosphorylated as described previously (Pang et al., 2008). SPA reactions were performed in 96-well plates at a final volume of 50 μl containing 20 mM Tris-HCl pH 7.5, 5 mM MgCl2, 1 mM DTT, 2 μM biotin-SAMS, 2 μM ATP, 0.2 μCi/well [γ-^33P]ATP, and various amount of activator. Reactions were initiated by the addition of 50 nM recombinant AMPK proteins to the reaction solutions and incubated at 30° C. for 2 hr. After that, reactions were terminated by the addition of 40 μl stop solution containing 80 μg streptavidin-coated SPA beads per well, 50 mM EDTA, 0.1% Triton X-100 in PBS, pH 7.5 and incubated for 1 hr. Finally, a 160 μl suspension solution containing 2.4 M CsCl, 50 mM EDTA, and 0.1% Triton X-100 in PBS (pH 7.5) was added to the reaction solution to suspend SPA beads completely. SPA signals were determined with a Wallac MicroBeta plate counter (PerkinElmer) 30 min later for calculation of the amount of product formed. The amount of products formed in 2 hr was plotted against activator concentrations to determine the effective concentration of the activator (EC50) required for 50% of maximal enzyme activity.

| SMILES | EC50 [nM] |
| --- | --- |
| O=C(c1cccc(CN2C(=O)[C@]3(C[C@@H]3c3ccc(Cl)cc3)c3ccccc32)c1)N1CCNCC1 (racemic) [Example 62, (1S,2R) and (1R,2S)-2-(4-chlorophenyl)-1′-(3-(piperazine-1-carbonyl)benzyl)spiro[cyclopropane-1,3′-indolin]-2′-one] | 6570 |
| O=C(O)c1cn(CCN2C(=O)[C@]3(C[C@@H]3c3ccc(Cl)cc3)c3ccccc32)cn1 (racemic) [Example 81, (1S,2R) and (1R,2S)-1-(2-(2-(4-chlorophenyl)-2′-oxospiro[cyclopropane-1,3′-indoline]-1′-yl)ethyl)-1H-imidazole-4-carboxylic acid] | 2220 |
| O=C(O)c1cccc(CN2C(=O)[C@@]3(C[C@@H]3c3ccc(Cl)cc3)c3cc(Br)ccc32)c1 (racemic) [Example 15, (1R,2R) and (1S,2S)-3-((5′-bromo-2-(4-chlorophenyl)-2′-oxospiro[cyclopropane-1,3′-indoline]-1′-yl)methyl)benzoic acid] | 2480 |
| O=C(O)c1cccc(CN2C(=O)[C@]3(C[C@@H]3c3ccccc3F)c3ccccc32)c1 (mixture of isomers) [Example 8, (1S,2R) and (1R,2S)-3-((2-(2-fluorophenyl)-2′-oxospiro[cyclopropane-1,3′-indoline]-1′-yl)methyl)benzoic acid] | 2770 |
| O=C(c1cccc(N2C(=O)[C@@]3(C[C@H]3c3ccc(Cl)cc3)c3ccccc32)c1)N1CCOCC1 (racemic) [Example 88, (1R,2S) and (1S,2R)-2-(4-chlorophenyl)-1′-(3-(morpholine-4-carbonyl)phenyl)spiro [cyclopropane-1,3′-indolin]-2′-one] | 2560 |
| Cc1cc(NC(=O)c2cccc(CN3C(=O)[C@@]4(C[C@H]4c4ccc(Cl)cc4)c4ccccc43)c2)[nH]n1 (racemic) [Example 67, (1R,2S) and (1S,2R)-3-((2-(4-chlorophenyl)-2′-oxospiro[cyclopropane-1,3′-indoline]-1′-yl)methyl)-N-(3-methyl-1 H-pyrazol-5-yl)benzamide] | 2290 |
| N#Cc1ccc([C@H]2C[C@]23C(=O)N(Cc2cccc(C(=O)O)c2)c2ccccc23)cc1 (racemic) [Example 5, (1S,2R) and (1R,2S)-3-((2-(4-cyanophenyl)-2′-oxospiro[cyclopropane-1,3′-indoline]-1′-yl)methyl)benzoic acid] | 5300 |
| O=C(O)c1cccc(CN2C(=O)[C@]3(C[C@@H]3c3ccc(Cl)cc3)c3cc(F)ccc32)c1 (racemic) [Example 22, (1S,2R) and (1R,2S)-3-((2-(4-chlorophenyl)-5′-fluoro-2′-oxospiro[cyclopropane-1,3′-indoline]-1′-yl)methyl)benzoic acid] | 11200 |
| CS(=O)(=O)c1ccc([C@H]2C[C@]23C(=O)N(Cc2cccc(C(=O)O)c2)c2ccccc23)cc1 (racemic) [Example 7, (1S,2R) and (1R,2S)-3-((2-(4-(methylsulfonyl)phenyl)-2′-oxospiro[cyclopropane-1,3′-indoline]-1′-yl)methyl)benzoic acid] | 10800 |
| O=C(O)c1cccc(CN2C(=O)[C@@]3(C[C@H]3c3ccc(Cl)cc3)c3ccccc32)c1 (racemic) [Example 1, (1R,2S) and (1S,2R)-3-((2-(4-chlorophenyl)-2′-oxospiro[cyclopropane-1,3′-indoline]-1′-yl)methyl)benzoic acid] | 2570 |
| O=C(O)c1cccc(CN2C(=O)[C@]3(C[C@@H]3c3ccc(Cl)cc3)c3ccccc32)n1 (racemic) [Example 68, (1S,2R) and (1R,2S)-6-((2-(4-chlorophenyl)-2′-oxospiro[cyclopropane-1,3′-indoline]-1′-yl)methyl)picolinic acid] | 2800 |
| O=C(O)c1cccc(CN2C(=O)[C@]3(C[C@H]3c3ccccc3C(F)(F)F)c3ccccc32)c1 (racemic) [Example 12, (1S,2S) and (1R,2R)-3-((2′-oxo-2-(2-(trifluoromethyl)phenyl)-spiro[cyclopropane-1,3′-indoline]-1′-yl)methyl)benzoic acid] | 2360 |
| O=C1N(CCNCCN2CCOCC2)c2ccccc2[C@@]12C[C@@H]2c1ccc(Cl)cc1 (racemic) [Example 128, (1S,2R) and (1R,2S)-2-(4-chlorophenyl)-1′-(2-(2-morpholinoethylamino)ethyl) spiro[cyclopropane-1,3′-indolin]-2′-one] | 2040 |

More lines, now with the values ahead:

| EC50 [nM] | SMILES |
| --- | --- |
| 900 | COc1ccc([C@@H]2C[C@]23C(=O)N(Cc2cccc(C(=O)O)c2)c2ccccc23)cc1 (racemic) [Example 20, (1S,2S) and (1R,2R)-3-((2-(4-methoxyphenyl)-2′-oxospiro[cyclopropane-1,3′-indoline]-1′-yl)methyl)benzoic acid] |
| 1270 | O=C(NCCCN1CCOCC1)c1cccc(CN2C(=O)[C@@]3(C[C@H]3c3ccc(Cl)cc3)c3ccccc32)c1 (racemic) [Example 112, (1R,2S) and (1S,2R)-3-((2-(4-chlorophenyl)-2′-oxospiro[cyclopropane-1,3′-indoline]-1′-yl)methyl)-N-(3-morpholinopropyl)benzamide] |
| 1100 | CC1CN(CCNCCN2C(=O)[C@]3(C[C@@H]3c3ccc(Cl)cc3)c3ccccc32)CC(C)O1 (mixture of isomers) [Example 130, (1S,2R) and (1R,2S)-2-(4-chlorophenyl)-1′-(2-(2-(2,6-dimethylmorpholino)ethylamino)ethyl) Spiro[cyclopropane-1,3′-indolin]-2′-one] |
| 1550 | CS(=O)(=O)NC(=O)c1cccc(N2C(=O)[C@]3(C[C@@H]3c3ccc(Cl)cc3)c3ccccc32)c1 (racemic) [Example 132, (1S,2R) and (1R,2S)-3-(2-(4-chlorophenyl)-2′-oxospiro[cyclopropane-1,3′-indoline]-1′-yl)-N-(methylsulfonyl)benzamide] |
| 1550 | CS(=O)(=O)NC(=O)c1cccc(N2C(=O)[C@@]3(C[C@@H]3c3ccc(Cl)cc3)c3ccccc32)c1 (racemic) [Example 91, (1R,2R) and (1S,2S)-3-(2-(4-chlorophenyl)-2′-oxospiro[cyclopropane-1,3′-indoline]-1′-yl)-N-(methylsulfonyl)benzamide] |
| 2020 | O=C(O)c1cccc(CN2C(=O)[C@]3(C[C@@H]3c3cccc(F)c3)c3ccccc32)c1 (racemic) [Example 10, (1S,2R) and (1R,2S)-3-((2-(3-fluorophenyl)-2′-oxospiro[cyclopropane-1,3′-indoline]-1′-yl)methyl)benzoic acid] |
| 2040 | O=C(O)c1cccc(CN2C(=O)[C@]3(C[C@H]3c3cccc(F)c3)c3ccccc32)c1 (racemic) [Example 11, (1S,2S) and (1R,2R)-3-((2-(3-fluorophenyl)-2′-oxospiro[cyclopropane-1,3′-indoline]-1′-yl)methyl)benzoic acid] |
| 1840 | CN(C)CCN1CCN(C(=O)c2cccc(CN3C(=O)[C@@]4(C[C@H]4c4ccc(Cl)cc4)c4ccccc43)c2)CC1 (racemic) [Example 113, (1R,2S) and (1S,2R)-2-(4-chlorophenyl)-1′-(3-(4-(2-(dimethylamino)ethyl)piperazine-1-carbonyl)benzyl)spiro[cyclopropane-1,3′-indolin]-2′-one] |
| 1190 | O=C(O)c1cccc(CN2C(=O)[C@]3(C[C@H]3c3ccccc3F)c3ccccc32)c1 (mixture of isomers) [Example 9, (1S,2S) and (1R,2R)-3-((2-(2-fluorophenyl)-2′-oxospiro[cyclopropane-1,3′-indoline]-1′-yl)methyl)benzoic acid] |
| 1730 | CN1CCN(C(=O)c2cccc(N3C(=O)[C@]4(C[C@H]4c4ccc(Cl)cc4)c4ccccc43)c2)CC1 (racemic) [Example 86, (1S,2S) and (1R,2R)-2-(4-chlorophenyl)-1′-(3-(4-methylpiperazine-1-carbonyl)phenyl) Spiro[cyclopropane-1,3′-indolin]-2′-one] |
| 1470 | CS(=O)(=O)N1CCN(C(=O)c2cccc(N3C(=O)[C@]4(C[C@@H]4c4ccc(Cl)cc4)c4ccccc43)c2)CC1 (racemic) [Example 90, (1R,2S) and (1S,2R)-2-(4-chlorophenyl)-1′-(3-(4-(methylsulfonyl)piperazine-1-carbonyl)phenyl)spiro[cyclopropane-1,3′-indolin]-2′-one] |
| 1790 | O=C(O)c1cccc(CN2C(=O)[C@]3(C[C@H]3c3ccc(F)cc3)c3ccccc32)c1 (racemic) [Example 26, (1S,2S) and (1R,2R)-3-((-2-(4-fluorophenyl)-2′-oxospiro[cyclopropane-1,3′-indoline]-1′-yl)methyl)benzoic acid] |
